Data as given in US11548871B2, “Triazole carbamate pyridyl sulfonamides as LPA receptor antagonists and uses thereof” (Gilead Sciences, Inc., priority 2019, dated 2023).

The compounds below were run against human LPAR1 (Homo sapiens, UniProt Q92633) (assay: LPAR1 intracellular calcium mobilization assay (antagonist mode)).
Sequence of human LPAR1 (Q92633 whole entry): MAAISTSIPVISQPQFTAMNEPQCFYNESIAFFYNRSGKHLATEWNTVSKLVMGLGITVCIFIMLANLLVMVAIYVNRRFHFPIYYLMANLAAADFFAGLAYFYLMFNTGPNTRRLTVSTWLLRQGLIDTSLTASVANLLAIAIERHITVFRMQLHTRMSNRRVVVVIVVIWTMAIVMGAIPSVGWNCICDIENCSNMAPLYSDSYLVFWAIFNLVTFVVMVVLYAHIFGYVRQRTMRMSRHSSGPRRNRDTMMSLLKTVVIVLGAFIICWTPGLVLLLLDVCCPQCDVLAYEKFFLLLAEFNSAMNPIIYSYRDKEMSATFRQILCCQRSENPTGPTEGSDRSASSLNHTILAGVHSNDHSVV

Row | EC50 [nM] | Structure (SMILES)
1 | 920 | COc1ncccc1[C@@H](C)OC(=O)Nc1c(-c2ccc(NS(C)(=O)=O)c(C)n2)nnn1C [Compound 122, (R)-1-(2-methoxypyridin-3-yl)ethyl (1-methyl-4-(6-methyl-5-(methylsulfonamido)pyridin-2-yl)-1H-1,2,3-triazol-5-yl)carbamate]
2 | 64.9 | CSc1ccccc1[C@@H](C)OC(=O)Nc1c(-c2ccc(NS(C)(=O)=O)c(C)n2)nnn1C [Compound 55, (R)-1-(2-(methylthio)phenyl)ethyl (1-methyl-4-(6-methyl-5-(methylsulfonamido)pyridin-2-yl)-1H-1,2,3-triazol-5-yl)carbamate]
3 | 493 | Cc1nc(-c2nnn(C)c2NC(=O)OC(c2cccnc2Cl)C(F)F)ccc1NS(C)(=O)=O (stereo not shown) [Compound 137, 1-(2-chloropyridin-3-yl)-2,2-difluoroethyl (1-methyl-4-(6-methyl-5-(methylsulfonamido)pyridin-2-yl)-1H-1,2,3-triazol-5-yl)carbamate]
4 | 3220 | Cc1nc(-c2nnn(C)c2NC(=O)OC2c3ccccc3CC2F)ccc1NS(C)(=O)=O (stereo not shown) [Compound 73, 2-fluoro-2,3-dihydro-1H-inden-1-yl (1-methyl-4-(6-methyl-5-(methylsulfonamido)pyridin-2-yl)-1H-1,2,3-triazol-5-yl)carbamate]
5 | 170 | Cc1nc(-c2nnn(C)c2NC(=O)O[C@H](C)c2cc(F)cc(F)c2)ccc1NS(C)(=O)=O [Compound 53, (R)-1-(3,5-difluorophenyl)ethyl (1-methyl-4-(6-methyl-5-(methylsulfonamido)pyridin-2-yl)-1H-1,2,3-triazol-5-yl)carbamate]
6 | 278 | C[C@@H](OC(=O)Nc1c(-c2ccc(NS(C)(=O)=O)c(Cl)n2)nnn1C)c1cccnc1Cl [Compound 154, (R)-1-(2-chloropyridin-3-yl)ethyl (4-(6-chloro-5-(methylsulfonamido)pyridin-2-yl)-1-methyl-1H-1,2,3-triazol-5-yl)carbamate]
7 | 18.4 | Cc1nc(-c2nnn(C)c2NC(=O)O[C@H](CF)c2cccc(F)c2)ccc1NS(C)(=O)=O [Compound 43, (S)-2-fluoro-1-(3-fluorophenyl)ethyl (1-methyl-4-(6-methyl-5-(methylsulfonamido)pyridin-2-yl)-1H-1,2,3-triazol-5-yl)carbamate]
8 | 270 | C[C@@H](OC(=O)Nc1c(-c2ccc(NS(C)(=O)=O)c(Cl)n2)nnn1C)c1ccccc1 [Compound 2, (R)-1-phenylethyl (4-(6-chloro-5-(methylsulfonamido)pyridin-2-yl)-1-methyl-1H-1,2,3-triazol-5-yl)carbamate]
9 | 5250 | C[C@@H](OC(=O)Nc1c(-c2ccc(NS(=O)(=O)C3CNC3)cn2)nnn1C)c1cccnc1Cl [Compound 161, (R)-1-(2-chloropyridin-3-yl)ethyl (4-(5-(azetidine-3-sulfonamido)pyridin-2-yl)-1-methyl-1H-1,2,3-triazol-5-yl)carbamate]
10 | 589 | Cc1nc(-c2nnn(C)c2NC(=O)OC(C)c2cccnc2F)ccc1NS(C)(=O)=O (stereo not shown) [Compound 79, 1-(2-fluoropyridin-3-yl)ethyl (1-methyl-4-(6-methyl-5-(methylsulfonamido)pyridin-2-yl)-1H-1,2,3-triazol-5-yl)carbamate]
11 | 31.3 | Cc1nc(-c2nnn(C)c2NC(=O)O[C@H](C)c2cc(F)ccc2Cl)ccc1NS(C)(=O)=O [Compound 60, (R)-1-(2-chloro-5-fluorophenyl)ethyl (1-methyl-4-(6-methyl-5-(methylsulfonamido)pyridin-2-yl)-1H-1,2,3-triazol-5-yl)carbamate]
12 | 434 | Cc1nc(-c2nnn(C)c2NC(=O)O[C@H](C)c2cccc(F)c2)ccc1NS(=O)(=O)C1CCC1 [Compound 104, (R)-1-(3-fluoro-phenyl)ethyl(4-(5-(cyclobutane-sulfonamido)-6-methylpyridin-2-yl)-1-methyl-1H-1,2,3-triazol-5-yl)carbamate]
13 | 142 | Cc1nc(-c2nnn(C)c2NC(=O)O[C@H](C)c2cc(Cl)cnc2Cl)ccc1NS(C)(=O)=O [Compound 142, (R)-1-(2,5-dichloropyridin-3-yl)ethyl (1-methyl-4-(6-methyl-5-(methylsulfonamido)pyridin-2-yl)-1H-1,2,3-triazol-5-yl)carbamate]
14 | 723 | Cc1nc(-c2nnn(C)c2NC(=O)O[C@H](C)c2cccnc2C)ccc1NS(C)(=O)=O [Compound 141, (R)-1-(2-methylpyridin-3-yl)ethyl (1-methyl-4-(6-methyl-5-(methylsulfonamido)pyridin-2-yl)-1H-1,2,3-triazol-5-yl)carbamate]
15 | 1120 | Cc1ncc(S(=O)(=O)Nc2ccc(-c3nnn(C)c3NC(=O)O[C@H](C)c3cccc(F)c3)nc2C)s1 [Compound 107, (R)-1-(3-fluoro-phenyl)ethyl (1-methyl-4-(6-methyl-5-((2-methylthiazole)-5-sulfonamido)pyridin-2-yl)-1H-1,2,3-triazol-5-yl)carbamate]
16 | 81.7 | CNS(=O)(=O)Nc1ccc(-c2nnn(C)c2NC(=O)O[C@H](C)c2cc(F)cnc2Cl)nc1 [Compound 162, (R)-1-(2-chloro-5-fluoropyridin-3-yl)ethyl (1-methyl-4-(5-((N-methylsulfamoyl)amino)pyridin-2-yl)-1H-1,2,3-triazol-5-yl)carbamate]
17 | 46.1 | Cn1nnc(-c2ccc(NS(C)(=O)=O)cn2)c1NC(=O)O[C@H](CF)c1ccccc1 [Compound 18, (S)-2-fluoro-1-phenylethyl (1-methyl-4-(5-(methylsulfonamido)pyridin-2-yl)-1H-1,2,3-triazol-5-yl)carbamate]
18 | 115 | Cc1nc(-c2nnn(C)c2NC(=O)O[C@H](C)CC(C)C)ccc1NS(C)(=O)=O [Compound 72, (R)-4-methylpentan-2-yl (1-methyl-4-(6-methyl-5-(methylsulfonamido)pyridin-2-yl)-1H-1,2,3-triazol-5-yl)carbamate]
19 | 162 | Cc1nc(-c2nnn(C)c2NC(=O)O[C@H](CF)c2ccccc2)c(F)cc1NS(C)(=O)=O [Compound 156, (S)-2-fluoro-1-phenylethyl (4-(3-fluoro-6-methyl-5-(methylsulfonamido)pyridin-2-yl)-1-methyl-1H-1,2,3-triazol-5-yl)carbamate]
20 | 876 | Cc1nc(-c2nnn(C)c2NC(=O)OC(C)c2cccnc2C)ccc1NS(C)(=O)=O (stereo not shown) [Compound 81, 1-(2-methylpyridin-3-yl)ethyl (1-methyl-4-(6-methyl-5-(methylsulfonamido)pyridin-2-yl)-1H-1,2,3-triazol-5-yl)carbamate]
21 | 261 | CCS(=O)(=O)Nc1ccc(-c2nnn(C)c2NC(=O)O[C@H](C)c2cccc(F)c2)nc1C [Compound 101, (R)-1-(3-fluorophenyl) ethyl(4-(5-(ethyl-sulfonamido)-6-methyl-pyridin-2-yl)-1-methyl-1H-1,2,3-triazol-5-yl)carbamate]
22 | 166 | C[C@@H](OC(=O)Nc1c(-c2ccc(NS(C)(=O)=O)c(F)n2)nnn1C)c1ccccc1 [Compound 3, (R)-1-phenylethyl (4-(6-fluoro-5-(methylsulfonamido)pyridin-2-yl)-1-methyl-1H-1,2,3-triazol-5-yl)carbamate]
23 | 66.3 | C[C@@H](OC(=O)Nc1c(-c2ccc(NS(C)(=O)=O)cn2)nnn1C)c1cccc(Cl)c1 [Compound 14, (R)-1-(3-chlorophenyl)ethyl (1-methyl-4-(5-(methylsulfonamido)pyridin-2-yl)-1H-1,2,3-triazol-5-yl)carbamate]
24 | 42.1 | C[C@@H](OC(=O)Nc1c(-c2ccc(NS(C)(=O)=O)cn2)nnn1C)c1cc(Cl)cnc1F [Compound 111, (R)-1-(5-chloro-2-fluoropyridin-3-yl)ethyl (1-methyl-4-(5-(methylsulfonamido)pyridin-2-yl)-1H-1,2,3-triazol-5-yl)carbamate]
25 | 167 | Cc1nc(-c2nnn(C)c2NC(=O)OCc2cc(F)ccc2Cl)ccc1NS(C)(=O)=O [Compound 38, 2-chloro-5-fluorobenzyl (1-methyl-4-(6-methyl-5-(methylsulfonamido)pyridin-2-yl)-1H-1,2,3-triazol-5-yl)carbamate]
26 | 304 | C[C@@H](OC(=O)Nc1c(-c2ccc(NS(C)(=O)=O)c(C3CC3)n2)nnn1C)c1cccnc1Cl [Compound 149, (R)-1-(2-chloropyridin-3-yl)ethyl (4-(6-cyclopropyl-5-(methylsulfonamido)pyridin-2-yl)-1-methyl-1H-1,2,3-triazol-5-yl)carbamate]
27 | 30 | Cc1nc(-c2nnn(C)c2NC(=O)O[C@H](C)c2cc(Cl)ccc2Cl)ccc1NS(C)(=O)=O [Compound 61, (R)-1-(2,5-dichlorophenyl)ethyl (1-methyl-4-(6-methyl-5-(methylsulfonamido)pyridin-2-yl)-1H-1,2,3-triazol-5-yl)carbamate]
28 | 69.9 | Cc1nc(-c2nnn(C)c2NC(=O)O[C@H](C)c2ccccc2C(F)(F)F)ccc1NS(C)(=O)=O [Compound 98, (R)-1-(2-(trifluoromethyl)phenyl)ethyl (1-methyl-4-(6-methyl-5-(methylsulfonamido)pyridin-2-yl)-1H-1,2,3-triazol-5-yl)carbamate]
